{"source": "patent US10952999B2", "about": "“Inhibitor of cyclin-dependent kinase CDK9” (GENFLEET THERAPEUTICS (SHANGHAI) INC., priority 2017, dated 2021)", "key": {"[1]": {"tested_on": "acute myelocytic leukemia (AML) OCI-AML-3", "assay": "Cancer cell growth, Cell Titer-Glo cell viability assay, 72 hours", "type": "cell-based", "details": "Homo sapiens, OCI-AML-3; OCI-AML3, 72 hours", "from_the_text": "(§1) In the examples, we used acute myelocytic leukemia (AML) OCI-AML-3, acute promyelocytic leukemia cell line NB-4, MDS-RAEB (myelodysplastic syndrome-excess blasts type) cell line SKM-1, human leukemia cell Nomo-1, acute myeloid leukemia cell line MOLM14, acute myeloid leukemia cell line MOLM13, acute myeloid leukemia cell line MV4-11, acute myeloid leukemia cell line HL-60, acute myeloid leukemia cell line OCI-AML-2, histiocytic lymphoma U-937, acute B cell leukemia cell line MEC-1, acute B cell leukemia cell line MEC-2, acute megakaryoblastic leukemia CMK, hamster lung cell CHL, hamster ovary cell CHO, human non-small cell lung cancer cell H1975, human non-small cell lung cancer cell H358, human small cell lung cancer cell H209, human lung adenocarcinoma cell H1395, human non-small cell lung cancer cell PC-9, human lung cancer cell H3122, human non-small cell lung cancer cell H2122, human non-small cell lung cancer cell H1915, human lung adenocarcinoma cell H1355, human non-small cell lung cancer cell HCC827, human breast cancer cell MDA-MB-231, human breast cancer cell MDA-MB-468, human breast cancer cell MCF-7, human breast cancer cell T47D, human breast cancer cell SK-Br-3, the above cells were purchased from ATCC.\n(§2) Cell Titer-Glo® (Promega, USA) chemical self-luminescence cell viability assay kit was used to detect the number of viable cells by quantitatively measuring ATP in living cells, according to which to calculate GI50 and IC50."}, "[2]": {"tested_on": "acute myeloid leukemia cell line MV4-11", "assay": "Cancer cell growth, Cell Titer-Glo cell viability assay, 72 hours", "type": "cell-based", "details": "Homo sapiens; MV4-11, 72 hours", "from_the_text": "as §1, §2"}, "[3]": {"tested_on": "human breast cancer cell MDA-MB-231", "assay": "Cancer cell growth, Cell Titer-Glo cell viability assay, 72 hours", "type": "cell-based", "details": "MDA-MB-231, 72 hours", "from_the_text": "as §1, §2"}, "[4]": {"target": "T1, CDK1/cyclin B (Homo sapiens, UniProt P06493)", "T1 construct": "purchased Invitrogen, USA", "assay": "Enzyme assay for inhibition of CDK protein in vitro (Z-LYTE)", "type": "biochemical", "method": "(§3) Compounds 1 and 14 diluted in DMSO were mixed with detected CDK protein (Invitrogen, USA) respectively, incubated at room temperature for 30 minutes; and then mixed with Kinase/Z-LYTE™ Peptide Substrate Mixture (Invitrogen, USA) and 4×ATP. The mixed system was transferred to a 384-well white opaque plate to react for 1 hour at room temperature; 5 μL of Development Solution (Invitrogen, USA) was added to react at room temperature for 1 hour, and finally Stop Reagent (Invitrogen, USA) was added to terminate the reaction and MD SpectraMax I3× microplate reader (Molecular Devices, USA) was used to read fluorescence values."}, "[5]": {"target": "T2, CDK11(non-active) (Homo sapiens, UniProt Q9BWU1)", "T2 construct": "purchased Invitrogen, USA", "T2 sequence (Q9BWU1 whole entry)": "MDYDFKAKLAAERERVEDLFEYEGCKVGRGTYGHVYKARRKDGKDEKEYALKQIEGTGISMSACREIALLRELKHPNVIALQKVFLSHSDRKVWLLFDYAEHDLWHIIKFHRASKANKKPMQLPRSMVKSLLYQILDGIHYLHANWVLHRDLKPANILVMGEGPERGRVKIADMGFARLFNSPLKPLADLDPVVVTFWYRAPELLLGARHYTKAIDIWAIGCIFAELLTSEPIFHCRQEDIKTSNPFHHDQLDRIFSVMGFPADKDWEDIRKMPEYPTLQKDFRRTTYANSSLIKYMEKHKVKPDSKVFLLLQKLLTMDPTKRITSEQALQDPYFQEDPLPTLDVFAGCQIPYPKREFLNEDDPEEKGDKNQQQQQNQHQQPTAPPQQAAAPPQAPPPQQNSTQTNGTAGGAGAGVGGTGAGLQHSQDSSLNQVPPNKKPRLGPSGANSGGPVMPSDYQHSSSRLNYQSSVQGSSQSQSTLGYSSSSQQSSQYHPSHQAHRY", "assay": "Enzyme assay for inhibition of CDK protein in vitro (Z-LYTE)", "type": "biochemical", "method": "as §3"}, "[6]": {"target": "T3, CDK14/cyclin Y (Homo sapiens, UniProt O94921)", "T3 construct": "purchased Invitrogen, USA", "T3 sequence (O94921 whole entry)": "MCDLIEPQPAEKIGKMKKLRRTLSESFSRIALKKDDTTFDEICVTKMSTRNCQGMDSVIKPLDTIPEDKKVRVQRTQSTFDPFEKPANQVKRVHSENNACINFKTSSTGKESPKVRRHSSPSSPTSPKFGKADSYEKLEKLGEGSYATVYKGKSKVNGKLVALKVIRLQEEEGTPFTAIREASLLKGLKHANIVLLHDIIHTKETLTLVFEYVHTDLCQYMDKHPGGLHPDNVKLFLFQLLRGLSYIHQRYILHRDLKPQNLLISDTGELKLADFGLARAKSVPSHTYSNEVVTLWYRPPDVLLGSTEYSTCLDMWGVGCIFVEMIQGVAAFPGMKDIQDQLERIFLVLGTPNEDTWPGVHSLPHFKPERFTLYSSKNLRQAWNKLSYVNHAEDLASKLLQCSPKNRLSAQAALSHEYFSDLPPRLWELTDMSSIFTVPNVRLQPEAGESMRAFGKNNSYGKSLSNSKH", "T3 sequence (Q8ND76 whole entry partner)": "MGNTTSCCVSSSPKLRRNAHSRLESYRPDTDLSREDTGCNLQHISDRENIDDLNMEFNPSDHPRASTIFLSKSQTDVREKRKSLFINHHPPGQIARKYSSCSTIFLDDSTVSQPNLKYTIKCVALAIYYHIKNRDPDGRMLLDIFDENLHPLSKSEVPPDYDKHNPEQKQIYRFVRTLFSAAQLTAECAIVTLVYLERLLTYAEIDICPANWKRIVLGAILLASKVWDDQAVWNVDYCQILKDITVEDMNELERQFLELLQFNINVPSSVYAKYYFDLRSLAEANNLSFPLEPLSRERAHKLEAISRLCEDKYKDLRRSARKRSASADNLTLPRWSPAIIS", "assay": "Enzyme assay for inhibition of CDK protein in vitro (Z-LYTE)", "type": "biochemical", "method": "as §3"}, "[7]": {"target": "T4, CDK16/cyclin Y (Homo sapiens, UniProt Q00536)", "T4 construct": "purchased Invitrogen, USA", "T4 sequence (Q00536 whole entry)": "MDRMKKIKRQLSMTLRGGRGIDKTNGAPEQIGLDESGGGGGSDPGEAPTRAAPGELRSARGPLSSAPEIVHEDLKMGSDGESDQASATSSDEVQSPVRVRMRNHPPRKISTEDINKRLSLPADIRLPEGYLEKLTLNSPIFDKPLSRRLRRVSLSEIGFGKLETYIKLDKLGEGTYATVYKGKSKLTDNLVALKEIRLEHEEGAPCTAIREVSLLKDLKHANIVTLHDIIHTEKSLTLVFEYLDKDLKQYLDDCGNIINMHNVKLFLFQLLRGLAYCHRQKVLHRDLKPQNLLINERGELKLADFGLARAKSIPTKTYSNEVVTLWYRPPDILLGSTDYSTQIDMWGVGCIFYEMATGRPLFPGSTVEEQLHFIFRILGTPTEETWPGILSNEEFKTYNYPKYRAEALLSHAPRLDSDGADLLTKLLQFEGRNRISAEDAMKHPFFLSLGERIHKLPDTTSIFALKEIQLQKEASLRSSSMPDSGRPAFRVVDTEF", "T4 sequence (Q8ND76 whole entry partner)": "as the sequence (Q8ND76 whole entry partner) above", "assay": "Enzyme assay for inhibition of CDK protein in vitro (Z-LYTE)", "type": "biochemical", "method": "as §3"}, "[8]": {"target": "T5, CDK2/cyclin A (Homo sapiens, UniProt P24941)", "T5 construct": "purchased Invitrogen, USA", "assay": "Enzyme assay for inhibition of CDK protein in vitro (Z-LYTE)", "type": "biochemical", "method": "as §3"}, "[9]": {"target": "T6, CDK3/cyclin E1 (Homo sapiens, UniProt Q00526)", "T6 construct": "purchased Invitrogen, USA", "T6 sequence (Q00526 whole entry)": "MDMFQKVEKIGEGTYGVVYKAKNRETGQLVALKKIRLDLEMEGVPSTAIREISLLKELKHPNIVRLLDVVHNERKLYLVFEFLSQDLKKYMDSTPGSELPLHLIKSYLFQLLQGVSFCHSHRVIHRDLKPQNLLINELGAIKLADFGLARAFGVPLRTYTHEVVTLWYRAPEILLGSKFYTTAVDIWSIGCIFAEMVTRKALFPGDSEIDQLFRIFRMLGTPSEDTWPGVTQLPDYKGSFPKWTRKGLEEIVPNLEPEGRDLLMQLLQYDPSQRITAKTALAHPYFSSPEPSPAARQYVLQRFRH", "T6 sequence (P24864 whole entry partner)": "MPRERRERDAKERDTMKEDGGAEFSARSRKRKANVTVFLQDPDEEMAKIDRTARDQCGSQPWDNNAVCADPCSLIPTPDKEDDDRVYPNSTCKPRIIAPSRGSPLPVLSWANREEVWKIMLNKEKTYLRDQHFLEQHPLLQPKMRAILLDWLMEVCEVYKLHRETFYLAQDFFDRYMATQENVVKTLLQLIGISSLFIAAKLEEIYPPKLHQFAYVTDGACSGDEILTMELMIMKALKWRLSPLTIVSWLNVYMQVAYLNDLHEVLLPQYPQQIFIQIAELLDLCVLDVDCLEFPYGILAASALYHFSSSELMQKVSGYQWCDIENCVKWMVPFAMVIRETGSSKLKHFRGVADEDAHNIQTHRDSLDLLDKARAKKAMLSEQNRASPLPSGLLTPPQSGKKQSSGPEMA", "assay": "Enzyme assay for inhibition of CDK protein in vitro (Z-LYTE)", "type": "biochemical", "method": "as §3"}, "[10]": {"target": "T7, CDK5/p25 (Homo sapiens, UniProt Q00535)", "T7 construct": "purchased Invitrogen, USA", "T7 sequence (Q00535 whole entry)": "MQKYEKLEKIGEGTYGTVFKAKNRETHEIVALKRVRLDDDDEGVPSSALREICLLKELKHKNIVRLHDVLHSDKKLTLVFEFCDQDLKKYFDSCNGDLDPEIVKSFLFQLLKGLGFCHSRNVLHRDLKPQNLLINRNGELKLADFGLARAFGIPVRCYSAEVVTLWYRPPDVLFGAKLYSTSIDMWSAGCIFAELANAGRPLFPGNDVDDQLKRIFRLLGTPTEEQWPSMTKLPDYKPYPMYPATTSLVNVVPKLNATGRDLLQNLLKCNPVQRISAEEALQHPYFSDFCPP", "T7 sequence (Q15078 99-307 partner limits assumed)": "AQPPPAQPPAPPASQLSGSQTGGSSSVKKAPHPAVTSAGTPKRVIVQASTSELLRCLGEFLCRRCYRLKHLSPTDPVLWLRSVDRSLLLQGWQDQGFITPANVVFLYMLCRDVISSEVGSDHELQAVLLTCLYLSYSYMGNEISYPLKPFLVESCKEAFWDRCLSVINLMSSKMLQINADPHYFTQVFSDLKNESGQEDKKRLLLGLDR", "assay": "Enzyme assay for inhibition of CDK protein in vitro (Z-LYTE)", "type": "biochemical", "method": "as §3"}, "[11]": {"target": "T8, CDK7/cyclin HMNAT1 (Homo sapiens, UniProt P50613)", "T8 construct": "purchased Invitrogen, USA", "T8 sequence (P50613 whole entry)": "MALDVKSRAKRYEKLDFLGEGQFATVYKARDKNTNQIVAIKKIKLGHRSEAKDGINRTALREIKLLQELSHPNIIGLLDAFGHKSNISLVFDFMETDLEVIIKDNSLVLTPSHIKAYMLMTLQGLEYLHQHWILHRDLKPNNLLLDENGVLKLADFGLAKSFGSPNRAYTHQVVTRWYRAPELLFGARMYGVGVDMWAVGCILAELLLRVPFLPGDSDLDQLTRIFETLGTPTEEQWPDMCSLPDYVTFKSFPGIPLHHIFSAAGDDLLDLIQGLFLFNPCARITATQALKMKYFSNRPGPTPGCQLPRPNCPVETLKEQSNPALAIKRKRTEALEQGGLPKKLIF", "T8 sequence (P51946 whole entry partner)": "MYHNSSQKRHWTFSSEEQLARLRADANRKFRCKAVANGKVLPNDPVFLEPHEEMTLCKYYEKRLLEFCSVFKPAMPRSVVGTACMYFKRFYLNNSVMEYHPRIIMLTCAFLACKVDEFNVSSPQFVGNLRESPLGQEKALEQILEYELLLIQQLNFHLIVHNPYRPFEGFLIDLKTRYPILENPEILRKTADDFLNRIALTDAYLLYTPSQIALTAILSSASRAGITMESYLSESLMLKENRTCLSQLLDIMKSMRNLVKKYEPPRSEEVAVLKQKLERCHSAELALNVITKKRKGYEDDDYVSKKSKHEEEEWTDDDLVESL", "T8 sequence (P51948 whole entry partner)": "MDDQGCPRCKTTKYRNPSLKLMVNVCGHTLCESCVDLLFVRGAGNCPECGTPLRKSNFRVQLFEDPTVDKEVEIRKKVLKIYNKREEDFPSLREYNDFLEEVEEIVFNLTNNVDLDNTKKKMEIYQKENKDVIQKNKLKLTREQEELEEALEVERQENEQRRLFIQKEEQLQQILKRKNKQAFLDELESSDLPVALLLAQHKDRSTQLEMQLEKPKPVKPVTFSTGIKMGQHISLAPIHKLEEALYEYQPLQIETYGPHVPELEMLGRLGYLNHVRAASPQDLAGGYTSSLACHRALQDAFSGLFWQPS", "assay": "Enzyme assay for inhibition of CDK protein in vitro (Z-LYTE)", "type": "biochemical", "method": "as §3"}, "[12]": {"target": "T9, CDK8/cyclin C (Homo sapiens, UniProt P49336)", "T9 construct": "purchased Invitrogen, USA", "T9 sequence (P49336 whole entry)": "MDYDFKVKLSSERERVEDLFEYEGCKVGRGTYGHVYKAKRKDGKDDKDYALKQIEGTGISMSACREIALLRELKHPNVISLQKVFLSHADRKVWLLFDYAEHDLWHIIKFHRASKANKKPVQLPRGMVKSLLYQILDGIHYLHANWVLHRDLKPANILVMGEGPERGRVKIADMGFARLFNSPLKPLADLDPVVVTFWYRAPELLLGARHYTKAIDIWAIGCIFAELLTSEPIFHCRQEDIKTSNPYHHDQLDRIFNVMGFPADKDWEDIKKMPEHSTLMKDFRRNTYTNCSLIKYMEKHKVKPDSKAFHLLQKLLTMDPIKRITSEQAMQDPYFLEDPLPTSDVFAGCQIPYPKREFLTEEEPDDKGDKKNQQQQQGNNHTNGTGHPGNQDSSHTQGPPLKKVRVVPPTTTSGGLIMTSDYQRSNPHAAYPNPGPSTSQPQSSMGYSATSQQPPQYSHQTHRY", "T9 sequence (P24863 whole entry partner)": "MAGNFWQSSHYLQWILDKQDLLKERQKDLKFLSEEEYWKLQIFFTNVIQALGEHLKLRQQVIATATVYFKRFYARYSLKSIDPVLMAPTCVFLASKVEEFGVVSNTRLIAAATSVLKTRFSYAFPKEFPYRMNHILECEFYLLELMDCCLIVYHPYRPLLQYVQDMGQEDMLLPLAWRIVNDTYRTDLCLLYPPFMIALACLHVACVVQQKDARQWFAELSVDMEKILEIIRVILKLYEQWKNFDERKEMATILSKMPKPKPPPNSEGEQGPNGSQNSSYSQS", "assay": "Enzyme assay for inhibition of CDK protein in vitro (Z-LYTE)", "type": "biochemical", "method": "as §3"}, "[13]": {"target": "T10, CDK9/cyclin T1 (Homo sapiens, UniProt P50750)", "T10 construct": "purchased Invitrogen, USA", "assay": "Enzyme assay for inhibition of CDK protein in vitro (Z-LYTE)", "type": "biochemical", "method": "as §3"}, "[14]": {"tested_on": "acute myelocytic leukemia cell line (AML) HL-60", "assay": "Effect on apoptosis, Western Blot of PARP and Caspase 3 shear", "type": "cell-based", "details": "HL-60, 0.01-0.1 μM, 24 hours", "from_the_text": "(§4) Western Blot was used to detect the effects of drugs in different concentrations on DNA repair enzyme polyadenylation diphosphate-ribose polymerase PARP and protein shear of cysteine-containing aspartate proteolytic enzyme Caspase 3 at different time intervals."}, "[15]": {"tested_on": "acute myelocytic leukemia cell line (AML) MV4-11", "assay": "Effect on apoptosis, Western Blot of PARP and Caspase 3 shear", "type": "cell-based", "details": "MV4-11, 0.01-0.1 μM, 24 hours", "from_the_text": "as §4"}, "[16]": {"tested_on": "acute myelocytic leukemia cell line (AML) OCI-AML-3", "assay": "Effect on apoptosis, Western Blot of PARP and Caspase 3 shear", "type": "cell-based", "details": "OCI-AML-3, 0.01-0.1 μM, 24 hours", "from_the_text": "as §4"}, "[17]": {"tested_on": "acute promyelocytic leukemia cell line NB-4", "assay": "Effect on apoptosis, Western Blot of PARP and Caspase 3 shear", "type": "cell-based", "details": "NB-4, 0.01-0.1 μM, 24 hours", "from_the_text": "as §4"}, "[18]": {"tested_on": "MV4-11 acute granulocyte leukemia cells", "assay": "Human acute granulocyte leukemia MV4-11 mouse model, subcutaneous tumor", "type": "in vivo, mice", "method": "(§5) 24 Bal b/c female mice, 4-6 weeks, were purchased from Shanghai Slack Laboratory Animals Co., Ltd. and kept in SPF laboratory. The drinking water and padding were aseptically treated by autoclaving. All operations were carried out under aseptic conditions. On day 0, 5×10^6MV4-11 acute granulocyte leukemia cells (purchased from ATCC) were subcutaneously injected into the left side of all mice' back. Starting on day 15, all mice were divided into four groups (6 mice per group), methyl cellulose (HKI) solvent was orally administered to the first group of mice per day; compound 1 at a dose of 10 mg/kg mice body weight was orally administered to the second group of mice per day; compound 1 at a dose of 20 mg/kg mice body weight was orally administered to the third group of mice per day; compound 1 at a dose of 30 mg/kg mice body weight was orally administered to the fourth group of mice per day. From the start of administration, the length/width of the subcutaneous tumor was measured with a vernier caliper every day, and the body weight of the mouse was recorded every day, and the effect of compound 1 on the body weight of the mouse was observed. On day 43, the mice were sacrificed, subcutaneous tumors were taken out, and tumors were weighed and compared, and then a sample of protein lysate was prepared from the tumor sample tissue for use. The trend of subcutaneous tumor growth was counted within day 16 to day 43, and the tumor volume was calculated as: length×width×width/2 mm^3."}, "[19]": {"assay": "Body weight of mice in the MV4-11 mouse model", "type": "in vivo", "details": "orally per day, Bal b/c mice", "method": "as §5, with “On day 43, the mice were sacrificed, subcutaneous tumors were taken out, and tumors were weighed and compared, and then a sample of protein lysate was prepared from the tumor sample tissue for use.” left out"}, "[20]": {"tested_on": "human non-small cell lung cancer cells, human small cell lung cancer cells, lung adenocarcinoma cells, and breast cancer cells", "assay": "Cancer cell growth, cells of cancer type other than hematological cancer as a panel", "type": "cell-based", "details": "lung and breast cancer cells of table 3", "from_the_text": "as §1, with “ATCC. […]” for “ATCC.”"}}, "data": [{"smiles": "COC[C@@H](C)N[C@H]1CC[C@H](Nc2cc(-c3csc(NCC4(C#N)CCOCC4)n3)c(Cl)cn2)CC1", "note": "[Compound 1, 4-(((4-(5-chloro-2-(((1R,4r)-4-(((R)-1-methoxypropyl-2-yl)amino)cyclohexyl)amino)pyridin-4-yl)thiazol-2-yl)amino)methyl)tetrahydro-2H-pyran-4-carbonitrile]", "values": [{"measurement": "GI50", "setting": "[1]", "result": 33, "unit": "nM"}, {"measurement": "GI50", "setting": "[2]", "result": 14, "unit": "nM"}, {"measurement": "IC50", "setting": "[3]", "result": 74, "unit": "nM"}, {"measurement": "IC50", "setting": "[4]", "result": 5410, "unit": "nM"}, {"measurement": "IC50", "setting": "[5]", "result": "> 10000", "unit": "nM"}, {"measurement": "IC50", "setting": "[6]", "result": 2710, "unit": "nM"}, {"measurement": "IC50", "setting": "[7]", "result": 195, "unit": "nM"}, {"measurement": "IC50", "setting": "[8]", "result": 6850, "unit": "nM"}, {"measurement": "IC50", "setting": "[9]", "result": "> 10000", "unit": "nM"}, {"measurement": "IC50", "setting": "[10]", "result": 6950, "unit": "nM"}, {"measurement": "IC50", "setting": "[11]", "result": 3700, "unit": "nM"}, {"measurement": "IC50", "setting": "[12]", "result": "> 10000", "unit": "nM"}, {"measurement": "IC50", "setting": "[13]", "result": 0.928, "unit": "nM"}, {"measurement": "apoptosis (shear of PARP or Caspase 3)", "setting": "[14]", "result": "could cause apoptosis"}, {"measurement": "apoptosis (shear of PARP or Caspase 3)", "setting": "[15]", "result": "could cause apoptosis"}, {"measurement": "apoptosis (shear of PARP or Caspase 3)", "setting": "[16]", "result": "could cause apoptosis"}, {"measurement": "apoptosis (shear of PARP or Caspase 3)", "setting": "[17]", "result": "could cause apoptosis"}, {"measurement": "growth of subcutaneous tumors (in words)", "setting": "[18]; 10, 20, 30 mg/kg orally per day, Bal b/c mice", "result": "effective in inhibiting the growth of subcutaneous tumors"}, {"measurement": "tumor growth inhibition (TGI)", "setting": "[18]; high dose group (20, 30 mg/kg), orally per day, day 15 to day 43, Bal b/c mice", "result": 98.7, "unit": "%"}, {"measurement": "weight of the subcutaneous tumor", "setting": "[18]; low dose group (10 mg/kg), orally per day, Bal b/c mice", "result": "significantly reduced"}, {"measurement": "effect on the body weight of mice", "setting": "[19]; high dose group (20, 30 mg/kg)", "result": "affected the body weight"}, {"measurement": "effect on the body weight of mice", "setting": "[19]; low dose group (10 mg/kg)", "result": "no significant effect"}, {"measurement": "inhibitory effects on cancer cells tested (in words)", "setting": "[20]", "result": "significant inhibitory effects"}]}]}
